Source: PubChem BioAssay (NCI)
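Each compound was tested at five concentrations against cells in 96-well plates for 48 hours. Definition used: TGI = concentration required for complete inhibition of growth.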

How the values were obtained:
Assay in all cases: growth of human tumour cells (NCI), 48 h
SN12C renal = test system: SN12C renal
MALME-3M melanoma = test system: MALME-3M melanoma
NCI-H460 lung = test system: NCI-H460 lung
UO-31 renal = test system: UO-31 renal
OVCAR-5 ovarian = test system: OVCAR-5 ovarian
NCI-H522 lung = test system: NCI-H522 lung
NCI-H226 lung = test system: NCI-H226 lung
SF-268 CNS = test system: SF-268 CNS
MOLT-4 leukemia = test system: MOLT-4 leukemia
SNB-78 CNS = test system: SNB-78 CNS
HOP-18 NSCLC = test system: HOP-18 NSCLC
ACHN renal = test system: ACHN renal
CAKI-1 renal = test system: CAKI-1 renal
RXF-631 renal = test system: RXF-631 renal
K-562 leukemia = test system: K-562 leukemia
EKVX NSCLC = test system: EKVX NSCLC
COLO 205 colon = test system: COLO 205 colon
DMS 273 small cell lung = test system: DMS 273 small cell lung
HT29 colon = test system: HT29 colon
DMS 114 small cell lung = test system: DMS 114 small cell lung
HCT-15 colon = test system: HCT-15 colon
NCI-H23 lung = test system: NCI-H23 lung
XF 498 CNS = test system: XF 498 CNS
DLD-1 colon = test system: DLD-1 colon
M14 melanoma = test system: M14 melanoma
HOP-92 NSCLC = test system: HOP-92 NSCLC
SF-295 CNS = test system: SF-295 CNS
KM20L2 colon = test system: KM20L2 colon
TK-10 renal = test system: TK-10 renal
SK-MEL-2 melanoma = test system: SK-MEL-2 melanoma
HCT-116 colon = test system: HCT-116 colon
OVCAR-4 ovarian = test system: OVCAR-4 ovarian
OVCAR-3 ovarian = test system: OVCAR-3 ovarian
CCRF-CEM leukemia = test system: CCRF-CEM leukemia
HCC-2998 colon = test system: HCC-2998 colon
A549 NSCLC = test system: A549 NSCLC
UACC-62 melanoma = test system: UACC-62 melanoma
SW-620 colon = test system: SW-620 colon
SK-MEL-5 melanoma = test system: SK-MEL-5 melanoma
M19-MEL melanoma = test system: M19-MEL melanoma
SK-OV-3 ovarian = test system: SK-OV-3 ovarian
IGROV1 ovarian = test system: IGROV1 ovarian
LXFL 529 NSCLC = test system: LXFL 529 NSCLC
SK-MEL-28 melanoma = test system: SK-MEL-28 melanoma
HL-60(TB) leukemia = test system: HL-60(TB) leukemia
U251 CNS = test system: U251 CNS
RPMI-8226 leukemia = test system: RPMI-8226 leukemia
KM12 colon = test system: KM12 colon
786-0 renal = test system: 786-0 renal
SNB-75 CNS = test system: SNB-75 CNS
SNB-19 CNS = test system: SNB-19 CNS
OVCAR-8 ovarian = test system: OVCAR-8 ovarian
SR leukemia = test system: SR leukemia
HOP-62 NSCLC = test system: HOP-62 NSCLC
A498 renal = test system: A498 renal
LOX IMVI melanoma = test system: LOX IMVI melanoma
UACC-257 melanoma = test system: UACC-257 melanoma
SF-539 CNS = test system: SF-539 CNS
RXF 393 renal = test system: RXF 393 renal

With `Cc1csc2nc(-c3ccncc3)cn12` the TGI (SN12C renal) was > 100 µM, the TGI (MALME-3M melanoma) was > 100 µM and the TGI (NCI-H460 lung) was > 61.4 µM. For the same molecule, the TGI (UO-31 renal) was > 100 µM, the TGI (OVCAR-5 ovarian) was > 100 µM and the TGI (NCI-H522 lung) was > 100 µM. For the same molecule, the TGI (NCI-H226 lung) was > 100 µM, the TGI (SF-268 CNS) was > 100 µM and the TGI (MOLT-4 leukemia) was > 100 µM. The TGI (SNB-78 CNS) was > 100 µM, the TGI (HOP-18 NSCLC) was > 100 µM and the TGI (ACHN renal) was > 100 µM. For the same molecule, the TGI (CAKI-1 renal) was > 100 µM, the TGI (RXF-631 renal) was > 100 µM and the TGI (K-562 leukemia) was > 65.4 µM. The TGI (EKVX NSCLC) was > 100 µM, the TGI (COLO 205 colon) was > 79.7 µM and the TGI (DMS 273 small cell lung) was 41 µM. The TGI (HT29 colon) was > 100 µM, the TGI (DMS 114 small cell lung) was > 60.9 µM and the TGI (HCT-15 colon) was > 56.7 µM. The TGI (NCI-H23 lung) was > 100 µM, the TGI (XF 498 CNS) was > 100 µM and the TGI (DLD-1 colon) was > 100 µM. For the same molecule, the TGI (M14 melanoma) was > 100 µM, the TGI (HOP-92 NSCLC) was > 100 µM and the TGI (SF-295 CNS) was > 100 µM. The TGI (KM20L2 colon) was > 100 µM, the TGI (TK-10 renal) was > 100 µM and the TGI (SK-MEL-2 melanoma) was > 100 µM. For the same molecule, the TGI (HCT-116 colon) was > 59.3 µM, the TGI (OVCAR-4 ovarian) was > 100 µM and the TGI (OVCAR-3 ovarian) was > 100 µM. For the same molecule, the TGI (CCRF-CEM leukemia) was > 61 µM, the TGI (HCC-2998 colon) was > 100 µM and the TGI (A549 NSCLC) was > 100 µM. For the same molecule, the TGI (UACC-62 melanoma) was > 100 µM, the TGI (SW-620 colon) was > 54.2 µM and the TGI (SK-MEL-5 melanoma) was > 100 µM. For the same molecule, the TGI (M19-MEL melanoma) was > 100 µM, the TGI (SK-OV-3 ovarian) was > 100 µM and the TGI (IGROV1 ovarian) was > 100 µM. The TGI (LXFL 529 NSCLC) was > 76.5 µM, the TGI (SK-MEL-28 melanoma) was > 100 µM and the TGI (HL-60(TB) leukemia) was > 52.4 µM. For the same molecule, the TGI (U251 CNS) was > 72.6 µM, the TGI (RPMI-8226 leukemia) was > 64.1 µM and the TGI (KM12 colon) was > 100 µM. The TGI (786-0 renal) was 34.5 µM, the TGI (SNB-75 CNS) was > 100 µM and the TGI (SNB-19 CNS) was > 100 µM. The TGI (OVCAR-8 ovarian) was > 100 µM, the TGI (SR leukemia) was 51 µM and the TGI (HOP-62 NSCLC) was > 100 µM. The TGI (A498 renal) was > 100 µM, the TGI (LOX IMVI melanoma) was > 61.5 µM and the TGI (UACC-257 melanoma) was > 100 µM. For the same molecule, the TGI (SF-539 CNS) was > 65.9 µM.
`Cc1ccccc1NC(=O)/C(=N/NC(=O)CC#N)C1C(=O)N(c2ccccc2)N=C1N` (configuration not stated) was tested, and the TGI (SN12C renal) was > 100 µM, the TGI (MALME-3M melanoma) was > 100 µM and the TGI (NCI-H460 lung) was > 100 µM. For the same molecule, the TGI (UO-31 renal) was > 100 µM, the TGI (OVCAR-5 ovarian) was > 100 µM and the TGI (NCI-H522 lung) was > 100 µM. The TGI (NCI-H226 lung) was > 100 µM, the TGI (SF-268 CNS) was > 100 µM and the TGI (MOLT-4 leukemia) was > 100 µM. For the same molecule, the TGI (SNB-78 CNS) was > 100 µM, the TGI (HOP-18 NSCLC) was > 100 µM and the TGI (ACHN renal) was > 100 µM. The TGI (CAKI-1 renal) was > 100 µM, the TGI (RXF-631 renal) was > 100 µM and the TGI (K-562 leukemia) was > 100 µM. The TGI (EKVX NSCLC) was > 100 µM, the TGI (COLO 205 colon) was > 100 µM and the TGI (DMS 273 small cell lung) was > 100 µM. The TGI (HT29 colon) was > 100 µM, the TGI (DMS 114 small cell lung) was > 100 µM and the TGI (HCT-15 colon) was > 100 µM. For the same molecule, the TGI (NCI-H23 lung) was > 100 µM, the TGI (XF 498 CNS) was > 100 µM and the TGI (DLD-1 colon) was > 100 µM. For the same molecule, the TGI (M14 melanoma) was > 100 µM, the TGI (HOP-92 NSCLC) was > 100 µM and the TGI (SF-295 CNS) was > 100 µM. The TGI (KM20L2 colon) was > 100 µM, the TGI (TK-10 renal) was > 100 µM and the TGI (SK-MEL-2 melanoma) was > 100 µM. For the same molecule, the TGI (HCT-116 colon) was > 100 µM, the TGI (OVCAR-4 ovarian) was > 100 µM and the TGI (OVCAR-3 ovarian) was > 100 µM. The TGI (CCRF-CEM leukemia) was 88.9 µM, the TGI (HCC-2998 colon) was > 100 µM and the TGI (A549 NSCLC) was > 100 µM. For the same molecule, the TGI (UACC-62 melanoma) was > 100 µM, the TGI (SW-620 colon) was > 100 µM and the TGI (SK-MEL-5 melanoma) was > 100 µM. The TGI (M19-MEL melanoma) was > 100 µM, the TGI (SK-OV-3 ovarian) was > 100 µM and the TGI (IGROV1 ovarian) was > 100 µM. For the same molecule, the TGI (LXFL 529 NSCLC) was > 100 µM, the TGI (SK-MEL-28 melanoma) was > 100 µM and the TGI (HL-60(TB) leukemia) was > 100 µM. The TGI (U251 CNS) was > 100 µM, the TGI (RPMI-8226 leukemia) was > 100 µM and the TGI (KM12 colon) was > 100 µM. The TGI (786-0 renal) was > 100 µM, the TGI (SNB-75 CNS) was > 100 µM and the TGI (SNB-19 CNS) was > 100 µM. The TGI (OVCAR-8 ovarian) was > 100 µM, the TGI (SR leukemia) was > 100 µM and the TGI (HOP-62 NSCLC) was > 100 µM. For the same molecule, the TGI (A498 renal) was > 100 µM, the TGI (RXF 393 renal) was > 100 µM and the TGI (LOX IMVI melanoma) was > 100 µM. The TGI (UACC-257 melanoma) was > 100 µM and the TGI (SF-539 CNS) was > 100 µM.
